Experimental data: the supplement of paper PMC10307832

Tests used:
Assay in all cases: relative viability (nuclei count vs DMSO), 5 days (fraction); higher = more cells survive
FG-4592 + Dasatinib = compound: Cc1nc(C(=O)NCC(=O)O)c(O)c2ccc(Oc3ccccc3)cc12 [FG-4592] + Cc1nc(Nc2ncc(C(=O)Nc3c(C)cccc3Cl)s2)cc(N2CCN(CCO)CC2)n1 [Dasatinib] (partner 0.075 µM)
Procedure, shortened: (§1)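 Each reported value is a median over duplicate plates. It expresses relative viability: treated-well nuclei count divided by vehicle-well nuclei count. Lung cancer cell lines in 1536-well plates were dosed by pin tool a day after seeding, alone with one drug or with a fixed anchor-drug dose plus five library-drug doses (not always all listed) in √10 steps, and nuclei were counted after 5 days.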

IU1-47 + Lapatinib = compound: CC1=CC(=C(N1C2=CC=C(C=C2)Cl)C)C(=O)CN3CCCCC3 [IU1-47] + CS(=O)(=O)CCNCc1ccc(-c2ccc3ncnc(Nc4ccc(OCc5cccc(F)c5)c(Cl)c4)c3c2)o1 [Lapatinib] (partner 2 µM)
Procedure, shortened: as §1

FG-4592 + Luminespib = compound: Cc1nc(C(=O)NCC(=O)O)c(O)c2ccc(Oc3ccccc3)cc12 [FG-4592] + CCNC(=O)c1noc(-c2cc(C(C)C)c(O)cc2O)c1-c1ccc(CN2CCOCC2)cc1 [Luminespib] (partner 0.01 µM)
Procedure, shortened: as §1

IU1-47 + Navitoclax = compound: CC1=CC(=C(N1C2=CC=C(C=C2)Cl)C)C(=O)CN3CCCCC3 [IU1-47] + CC1(C)CCC(c2ccc(Cl)cc2)=C(CN2CCN(c3ccc(C(=O)NS(=O)(=O)c4ccc(N[C@H](CCN5CCOCC5)CSc5ccccc5)c(S(=O)(=O)C(F)(F)F)c4)cc3)CC2)C1 [Navitoclax] (partner 0.5 µM)
Procedure, shortened: as §1

Cell Line	relative viability (FG-4592 + Dasatinib; first compound 0.08 µM)	relative viability (FG-4592 + Dasatinib; first compound 0.253 µM)	relative viability (FG-4592 + Dasatinib; first compound 0.8 µM)	relative viability (FG-4592 + Dasatinib; first compound 2.53 µM)	relative viability (FG-4592 + Dasatinib; first compound 8 µM)	relative viability (IU1-47 + Lapatinib; first compound 0.08 µM)	relative viability (IU1-47 + Lapatinib; first compound 0.253 µM)	relative viability (IU1-47 + Lapatinib; first compound 0.8 µM)	relative viability (IU1-47 + Lapatinib; first compound 2.53 µM)	relative viability (IU1-47 + Lapatinib; first compound 8 µM)	relative viability (FG-4592 + Luminespib; first compound 0.08 µM)	relative viability (FG-4592 + Luminespib; first compound 0.253 µM)	relative viability (FG-4592 + Luminespib; first compound 0.8 µM)	relative viability (FG-4592 + Luminespib; first compound 2.53 µM)	relative viability (FG-4592 + Luminespib; first compound 8 µM)	relative viability (IU1-47 + Navitoclax; first compound 0.08 µM)	relative viability (IU1-47 + Navitoclax; first compound 0.253 µM)	relative viability (IU1-47 + Navitoclax; first compound 0.8 µM)	relative viability (IU1-47 + Navitoclax; first compound 2.53 µM)	relative viability (IU1-47 + Navitoclax; first compound 8 µM)
NCI-H661	0.983	0.825	0.874	0.827	0.835	0.562	0.546	0.51	0.338	0.552	0.94	0.888	0.961	0.863	0.951	–	–	–	–	–
NCI-H1563	0.465	0.465	0.397	0.466	0.44	0.935	0.914	1.25	0.793	0.73	0.552	0.528	0.537	0.534	0.535	–	–	–	–	–
ABC-1	0.532	0.463	0.48	0.59	0.463	1.45	1.08	1.06	0.821	1.12	0.501	0.515	–	0.413	0.42	–	–	–	–	–
LCLC-103H	0.414	0.492	0.311	0.342	0.408	–	–	–	–	–	0.891	0.935	0.998	1.09	0.855	–	–	–	–	–
NCI-H441	0.56	0.547	0.524	0.55	0.555	–	–	–	–	–	0.314	0.307	0.307	0.443	0.287	0.574	0.497	0.655	0.684	0.548
